According to ChEMBL document CHEMBL1201862, “PubChem BioAssay data set” (2004):
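How tested: cells in 96-well plates exposed to compound for 48 hours at five concentrations. The concentration for 50% growth inhibition is given as GI50.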 Calls of active or inactive are those of the source. No stated cut-off is given here; in the data, active = GI50 up to about 1.1 µM and inactive = higher.

Assays:
Assay in all cases: NCI-60 cell line screen, 48 h
UO-31 = system: UO-31
HCT-116 = system: HCT-116
UACC-62 = system: UACC-62
SR = system: SR
Malme-3M = system: Malme-3M
SK-MEL-2 = system: SK-MEL-2
DU-145 = system: DU-145
OVCAR-3 = system: OVCAR-3
HT-29 = system: HT-29
SNB-75 = system: SNB-75
IGROV-1 = system: IGROV-1
OVCAR-5 = system: OVCAR-5
SF-268 = system: SF-268
TK-10 = system: TK-10
RXF 393 = system: RXF 393
COLO 205 = system: COLO 205
HOP-62 = system: HOP-62
MOLT-4 = system: MOLT-4
SK-MEL-5 = system: SK-MEL-5
NCI-H226 = system: NCI-H226

Measured: GI50

O=C(O)CO/N=C1/C(=C2/C(=O)Nc3ccccc32)Nc2ccccc21
inactive: UO-31 65 µM | HCT-116 39.6 µM | UACC-62 38.4 µM | SR 39.5 µM | Malme-3M 30.5 µM | SK-MEL-2 25.8 µM | DU-145 44.3 µM | OVCAR-3 18.8 µM | HT-29 44.5 µM | SNB-75 27 µM | IGROV-1 22.9 µM | OVCAR-5 > 100 µM | SF-268 35.7 µM | TK-10 > 100 µM | RXF 393 19.5 µM | COLO 205 57.5 µM | HOP-62 86.3 µM | MOLT-4 41.4 µM | SK-MEL-5 24.1 µM

COc1ccc2c(c1)/C(=C\c1c(C)nc3n1CCS3)C(=O)N2
inactive: UO-31 34.3 µM | HCT-116 19.2 µM | UACC-62 22.7 µM | SR 9.14 µM | SK-MEL-2 29 µM | DU-145 39.1 µM | OVCAR-3 21.7 µM | HT-29 12.6 µM | SNB-75 28.1 µM | IGROV-1 16.7 µM | OVCAR-5 42.3 µM | TK-10 35.8 µM | RXF 393 40.7 µM | COLO 205 9.42 µM | HOP-62 32.3 µM | MOLT-4 32.4 µM | SK-MEL-5 34 µM

CN(C)c1n/c(=N/Cc2cccnc2)ss1
inactive: UACC-62 > 10 µM | SR 2.09 µM | Malme-3M > 10 µM | DU-145 > 10 µM | HT-29 > 10 µM | SNB-75 > 10 µM | IGROV-1 > 10 µM | SF-268 > 10 µM | TK-10 > 10 µM | RXF 393 > 10 µM | COLO 205 > 10 µM | HOP-62 > 10 µM | MOLT-4 3.5 µM | SK-MEL-5 > 10 µM

CC#C[C@]1(O)CCC2[C@@H]3CCC4=CC(=O)CCC4=C3[C@@H](c3ccc(N(C)C)cc3)C[C@@]21C (stereo not given in full)
inactive: UO-31 8.2 µM | HCT-116 15 µM | UACC-62 3.36 µM | SR 14.1 µM | Malme-3M 14.6 µM | DU-145 22.1 µM | OVCAR-3 8.28 µM | HT-29 12.9 µM | OVCAR-5 22.7 µM | SF-268 6.85 µM | TK-10 11.9 µM | COLO 205 11.5 µM | HOP-62 20 µM | SK-MEL-5 10.9 µM

CCCCCCCCCCCCCC(=O)OCC(CCS(=O)(=O)O[C@H]1CC[C@@]2(C)C(=CC[C@@H]3C2CC[C@]2(C)C(=O)CCC32)C1)OC(=O)CCCCCCCCCCCCC (stereo not given in full)
inactive: UO-31 > 100 µM | HCT-116 > 100 µM | UACC-62 > 100 µM | SR > 100 µM | Malme-3M > 100 µM | SK-MEL-2 > 100 µM | DU-145 > 100 µM | OVCAR-3 > 100 µM | HT-29 > 100 µM | SNB-75 > 100 µM | IGROV-1 > 100 µM | OVCAR-5 > 100 µM | SF-268 > 100 µM | TK-10 > 100 µM | RXF 393 > 100 µM | COLO 205 > 100 µM | HOP-62 > 100 µM | SK-MEL-5 > 100 µM

O=C(O)CNC(=O)c1ccc([As](=O)(O)O)cc1
inactive: UO-31 > 100 µM | HCT-116 > 100 µM | UACC-62 > 100 µM | Malme-3M > 100 µM | SK-MEL-2 > 100 µM | DU-145 > 100 µM | OVCAR-3 > 100 µM | HT-29 > 100 µM | SNB-75 > 100 µM | IGROV-1 > 100 µM | OVCAR-5 > 100 µM | SF-268 > 100 µM | NCI-H226 > 100 µM | TK-10 > 100 µM | RXF 393 > 100 µM | COLO 205 > 100 µM | HOP-62 > 100 µM | MOLT-4 > 100 µM | SK-MEL-5 > 100 µM

Nc1cc(OCc2ccccc2)c(OCc2ccccc2)cc1C=O
inactive: HCT-116 21.2 µM | SR 26.6 µM | SK-MEL-2 28.2 µM | DU-145 31.6 µM | HT-29 22.9 µM | SNB-75 52.8 µM | IGROV-1 31.2 µM | OVCAR-5 55.2 µM | SF-268 65.2 µM | NCI-H226 44 µM | TK-10 15.3 µM | COLO 205 24.7 µM | HOP-62 > 10 µM | MOLT-4 18.6 µM | SK-MEL-5 24.7 µM

CC/C(Cl)=N\OC(=O)Nc1ccc(F)cc1F
inactive: UO-31 14.9 µM | HCT-116 6.62 µM | UACC-62 15.2 µM | Malme-3M 2.9 µM | SK-MEL-2 17.4 µM | DU-145 17.6 µM | OVCAR-3 17 µM | HT-29 21.3 µM | SNB-75 20.6 µM | IGROV-1 15.9 µM | OVCAR-5 17.9 µM | SF-268 24.1 µM | NCI-H226 17.9 µM | TK-10 12 µM | RXF 393 12.8 µM | COLO 205 1.91 µM | HOP-62 21 µM | MOLT-4 1.55 µM | SK-MEL-5 6.12 µM
